Laboratory results: PMC5131915, “Platinum(II) Iodido Complexes of 7-Azaindoles with Significant Antiproliferative Effects: An Old Story Revisited with Unexpected Outcomes” (PLoS ONE, 2016)
Like-named read-outs stand apart in the source and are kept apart here.

Key:
A2780 cells [1] = experiment: Cellular accumulation of platinum (ICP-MS); assay type: cell-based, human; conditions: 24 h treatment at IC50 concentration
Experimental: The A2780 cells were seeded in 6-well culture plates (1×10^6 cells per well) and incubated overnight (37°C and 5% CO2 in a humidified incubator). […] The cells were washed with PBS (2 × 2 mL) after 24 h treatment, harvested by trypsin treatment, collected and centrifuged in PBS. The supernatants were discarded after centrifugation and pellets were digested in 500 μL of nitric acid (3 min at 150°C) using a microwave system Monowave300 (Anton Paar). Solutions were diluted with 4.5 mL of water and the platinum content was determined by ICP-MS. The obtained values were corrected for adsorption effects. The experiments were conducted in triplicate and the results are presented as arithmetic mean±SD.

A2780 cells [2] = experiment: Cell cycle analysis (PI/RNase, flow cytometry), A2780; assay type: cell-based, human; conditions: A2780, 24 h, IC50 concentration
Experimental: The A2780 and MCF7 cells (1.0 × 10^6 per well) were pre-incubated in a six-well plate for 24 h as described above. […] After 24 h, floating cells were collected and attached cells were harvested using trypsin/EDTA in PBS. Total cells were washed twice with PBS and fixed in 70% ethanol. Cells were re-suspended in PBS and DNA staining was achieved by a solution of propidium iodide (PI) supplemented with RNase A (30 min, 25°C, in the dark). […] The data were analysed using CytExpert™ software (Beckman Coulter).

calf thymus DNA (ctDNA) = experiment: Fluorescence quenching experiments on the EtBr/ctDNA system; assay type: binding; conditions: for Stern-Volmer quenching constant KSV: TRIS/NaCl buffer pH 7.2; for apparent binding constant Kapp: estimated from Q50
Experimental: A volume of 405 μL of 154 μM ctDNA and 10 μL of 3 mM EtBr were mixed together in TRIS/NaCl buffer (pH = 7.2) and incubated for 30 min at ambient temperature. […] The mixtures were incubated at ambient temperature for next 15 min. The maxima of the emitted fluorescence of EtBr/ctDNA system have been observed at 613 nm (using the 546 nm excitation wavelength) and the intensity of fluorescence was recorded on a AvaSpec HS1024x122TE fluorescence spectrometer using a 1 cm quartz cell. […] Due to the indirect nature of the fluorescence quenching method, the value of KSV can be used for the estimation of the apparent binding constant Kapp of the complex by using the equation KEB [EtBr] = Kapp [Q50], where [Q50] is the concentration of the complex causing the 50% reduction in the intensity of fluorescence of the EtBr/DNA supramolecular complex, KEB = 1.0 × 10^6 M^−1 and [EtBr] = 10 μM [27].

[3] = test system: A549 lung carcinoma cells; experiment: In vitro cytotoxicity testing (MTT assay), A549; assay type: cell-based, human; conditions: 24 h drug exposure, no recovery, read-out: IC50±SD, A549
Experimental: (§1) A2780 ovarian carcinoma, A2780R cisplatin-resistant ovarian carcinoma, HOS osteosarcoma, G361 malignant melanoma, MCF7 breast carcinoma, A549 lung carcinoma, HeLa cervix carcinoma, 22Rv1 prostate carcinoma and Caco-2 colorectal carcinoma human cancer cell lines were purchased from the European Collection of Cell Cultures (ECACC), while the human non-cancerous hepatocytes (Hep) were supplied by Biopredic Intl. The cell lines were cultured, according to the suppliers`instructions, in RPMI-1640 medium supplemented with 10% of fetal calf serum, 1% of 2 mM glutamine, and 1% penicillin/streptomycin. All cell lines were grown as adherent monolayers at 37°C and 5% CO2 in a humidified atmosphere.
(§2) The cells were seeded to 96-well culture plates, pre-incubated in drug-free media at 37°C for 24 h and treated typically with the 0.01–50.0 μM solutions, prepared from the stock solutions by dilution with medium, for 24 h at 37°C. […] In parallel with compounds 1–8 and the reference drugs, the cells were also treated with vehicle (0.1% DMF in medium; negative control) and Triton X-100 (1%; positive control) to assess the minimal and maximal cell damage, respectively. The MTT assay was used to determine the cell viability; MTT = 3-(4,5-dimethylthiazol-2-yl)-2,5-diphenyltetrazolium bromide. A concentration of the formed dye was evaluated spectrophotometrically at 540 nm (TECAN, Schoeller Instruments LLC).
(§3) The data were expressed as the percentage of viability, where 100% and 0% represents the treatments with negative and positive controls, respectively. The data from the cancer cells were acquired from three independent experiments (conducted in triplicate) using cells from different passages. The resulting IC50 values (μM) were calculated from viability curves and the results are presented as arithmetic mean±SD.

[4] = test system: MCF7 breast carcinoma cells; experiment: In vitro cytotoxicity testing (MTT assay), MCF7; assay type: cell-based, human; conditions: 24 h drug exposure, no recovery, read-out: IC50±SD, MCF7
Experimental: as §1, §2, §3

[5] = test system: A2780 ovarian carcinoma cells; experiment: In vitro cytotoxicity testing (MTT assay), A2780; assay type: cell-based, human
Experimental: (§4) All cell lines were grown as adherent monolayers at 37°C and 5% CO2 in a humidified atmosphere.
(§5) The MTT assay was used to determine the cell viability; MTT = 3-(4,5-dimethylthiazol-2-yl)-2,5-diphenyltetrazolium bromide. A concentration of the formed dye was evaluated spectrophotometrically at 540 nm (TECAN, Schoeller Instruments LLC).
as §3

[6] = test system: Caco-2 colorectal carcinoma cells; experiment: In vitro cytotoxicity testing (MTT assay), Caco-2; assay type: cell-based, human; conditions: for IC50: 24 h drug exposure, no recovery, MTT, read-out: IC50±SD, Caco-2; for selectivity factor IC50(Hep)/IC50(cancer cell line): Caco-2
Experimental: as §4, §5, §3

[7] = 24 h drug exposure, no recovery, MTT, read-out: IC50±SD, A2780

N.N.[Cl][Pt][Cl] [Cisplatin, cisplatin, reference compound]
cellular accumulation (A2780 cells [1]): 535±16 pmol Pt/10^6 A2780 cells | G0/G1 population (A2780 cells [2]): 23.7±1.5% | G2/M population (A2780 cells [2]): 23.0±2.2% | S population (A2780 cells [2]): 50.6±2.8% | sub-G1 population (A2780 cells [2]): 2.0±0.2% | Stern-Volmer quenching constant KSV (calf thymus DNA (ctDNA)): 4.7 × 10^3 M^–1 | apparent binding constant Kapp (calf thymus DNA (ctDNA)): 4.8 × 10^4 M^–1 | IC50 [3]: > 50000 nM | IC50 [4]: 17900 ± 3500 nM

Brc1cc[n+]([Pt-2]([I])([I])[n+]2ccc(Br)c3cc[nH]c32)c2[nH]ccc12 [Complex 6, cis-[Pt(4Braza)2I2]]
cellular accumulation (A2780 cells [1]): 598±97 pmol Pt/10^6 A2780 cells | IC50 ([5]; 6 h exposure, read-out: IC50, A2780, time-dependent cytotoxicity): 8200 ± 500 nM | IC50 [5, 7]: 3200 ± 200 nM | IC50 ([5]; 48 h exposure, read-out: IC50, A2780, time-dependent cytotoxicity): 400 ± 100 nM | G0/G1 population (A2780 cells [2]): 51.5±3.2% | G2/M population (A2780 cells [2]): 26.3±1.6% | S population (A2780 cells [2]): 17.5±0.9% | sub-G1 population (A2780 cells [2]): 4.3±1.4% | Stern-Volmer quenching constant KSV (calf thymus DNA (ctDNA)): 7.4 × 10^3 M^–1 | apparent binding constant Kapp (calf thymus DNA (ctDNA)): 7.8 × 10^4 M^–1 | IC50 [3]: 4300 ± 900 nM | IC50 [4]: 1000 ± 400 nM | IC50 [6]: 400 ± 300 nM | selectivity factor IC50(Hep)/IC50(cancer cell line) [6]: ~10

Cc1cc2c(Cl)cc[n+]([Pt-2]([I])([I])[n+]3ccc(Cl)c4cc(C)[nH]c43)c2[nH]1 [Complex 8, cis-[PtI2(2Me4Claza)2]]
IC50 [5, 7]: 1700 ± 300 nM | G0/G1 population (A2780 cells [2]): 55.2±2.2% | G2/M population (A2780 cells [2]): 23.9±2.3% | S population (A2780 cells [2]): 18.3±1.3% | sub-G1 population (A2780 cells [2]): 2.2±0.4% | Stern-Volmer quenching constant KSV (calf thymus DNA (ctDNA)): 1.4 × 10^4 M^–1 | apparent binding constant Kapp (calf thymus DNA (ctDNA)): 1.2 × 10^5 M^–1 | IC50 [3]: 3500 ± 200 nM | IC50 [4]: 2100 ± 1000 nM | IC50 [6]: 400 ± 200 nM | selectivity factor IC50(Hep)/IC50(cancer cell line) [6]: ~24
